Reference: patent US20040224984A1, “Methods of treating inflammations and infections with pyridinium salts” (priority 2003, published 2004)

Columns and labels:
Candida albicans = experiment: Vaginal candidiasis in female Charles River mice; assay type: in vivo; conditions: mice infected vaginally, 0.025 mL daily for 4 days from 6 hours post-infection, formula I 0.5% (w/v), chlortrimazole 1% (w/v)
Experimental: Mice, infected vaginally with Candida albicans, were treated with 0.025 mL of the above treatments, commencing 6 hours post-infection, daily for 4 days.

Rodent [1] = experiment: 4 Hour Carrageenan Pleuritis (rodent inflammation model); assay type: in vivo; conditions: Prednisolone 0.02 mg/kg
Rodent [2] = experiment: 4 Hour Allergic Pleuritis (rodent inflammation model); assay type: in vivo; conditions: Prednisolone 0.004 mg/kg
Rodent [3] = experiment: 4 Hour Allergic Synovitis (rodent inflammation model); assay type: in vivo; conditions: Prednisolone 0.05 mg/kg
[4] = tested on: roundworms, threadworms, and whipworms; conditions: reported; U.S. Pat. No. 3,075,975 and 3,085,935; cited from earlier work

Q: For `Clc1ccccc1C(c1ccccc1)(c1ccccc1)n1ccnc1` [Chlortrimazole], which Cleared (Candida albicans; mice cleared/treated) is on record?
A: Its Cleared is 7/10.

Q: What about the Improved (Candida albicans; mice improved/treated) of the same compound?
A: Its Improved is 2/10.

Q: Which “% Inhibition Edema” value (Rodent [1]) does the source give for `C[C@]12C=CC(=O)C=C1CC[C@@H]1[C@@H]2[C@@H](O)C[C@@]2(C)[C@H]1CC[C@]2(O)C(=O)CO` [Prednisolone] here?
A: The value was 31%.

Q: And the “% Inhibition Neutrophils” value (Rodent [1])?
A: Its value is 21%.

Q: And the “% Inhibition Edema” value (Rodent [2])?
A: The value was 33%.

Q: What about the “% Inhibition Neutrophils” value (Rodent [2]) of the same compound?
A: Its value is 25%.

Q: And the “% Inhibition Edema” value (Rodent [3])?
A: Its value is 36%.

Q: What about the “% Inhibition Neutrophils” value (Rodent [3]) of the same compound?
A: Its value is 37%.

Q: For `CC[n+]1c(/C=C/c2ccc(N3CCCC3)cc2)cccc1/C=C/c1ccc(N2CCCC2)cc1.[I-]` [Stilbazium iodide], which Anthelmintic efficacy [4] is on record?
A: Its Anthelmintic efficacy is “effective against roundworms, threadworms, and whipworms”.
